Reference: publication PMC7397269, “Synthesis and Evaluation of New Coumarin Derivatives as Antioxidant, Antimicrobial, and Anti-Inflammatory Agents” (Molecules, 2020)
Converted amounts (≈) assume the structure as drawn.

Experiments:
[1] = DPPH antioxidant assay (radical scavenging); format: biochemical; details: mean ± SD (n = 3)
Protocol: The antioxidant effects of the synthesised compounds were assessed using the 2,2-diphenyl-1-picrylhydrazyl (DPPH) antioxidant assay. Table 1 summarises the antioxidant effects of the test samples and ascorbic acid except for compound 5b because it was produced in poor yield.
The radical scavenging activity of the synthesised compounds was measured using the DPPH microplate-based method. The absorbance was measured using a microplate/cuvette reader (Spectramax M5, Molecular Devices, San Jose, CA, USA). Reference standard ascorbic acid was utilised as the positive control for this assay. Test samples were prepared at a starting concentration of 200 μg/mL after mixing with 100 μL of 0.2 mM DPPH methanolic solution. […] Samples were incubated with DPPH in the dark for 30 min at room temperature (25 °C). The methanolic DPPH solution was prepared daily and stored in a flask covered with aluminium foil. DPPH radicals have an absorption maximum (λmax) at 515 nm, at which the absorbance values were measured and converted into a percentage of antioxidant activity.
The methanolic DPPH solution without antioxidants was used as a control, and samples in methanol alone served as a background control. IC50 was determined using GraphPad Prism 7 (GraphPad Software Inc., San Diego, CA, USA). The percent inhibition was calculated using the following Equation (1):(1) % Inhibition=100−Sample Absorbance −Sample background Absorbance/DPPH only Absorbance×100
The assay was carried out in triplicate and performed as much as possible in an area protected against light. The data points are presented as the mean ± standard deviation (SD, n = 3).

[2] = system: Staphylococcus aureus ATCC 29213; assay: Agar well diffusion, S. aureus; format: cell-based; details: ATCC29213, 100 μL of 10 mg/mL in DMSO, read-out: diameter of inhibition zone, SA
Text: (§1) The new molecules were individually tested for their antimicrobial activity in vitro against standard bacteria strains from the American Type Culture Collection (ATCC), namely, Staphylococcus aureus ATCC 29213, Bacillus subtilis ATCC 6633, Bacillus megaterium ATCC 9885 (Gram-positive), Escherichia coli ATCC 2592, and Pseudomonas aeruginosa ATCC 27,953 (Gram-negative). The compounds were also microbiologically tested against locally isolated Saccharomyces cerevisiae (yeast) and the standard Agricultural Research Service Culture Collection (NRRL) strain of the yeast-like pathogenic fungus Candida albicans NRRL Y-477. Primary screening was conducted using the agar well diffusion method using nutrient agar (NA) medium and Sabourand dextrose agar (SDA) medium for the tested pathological bacteria and yeast, respectively. […].
(§2) Antimicrobial tests were conducted via the agar well diffusion method using 100 μL of suspension containing 1 × 10^8 CFU/mL pathological tested bacteria and 1 × 10^6 CFU/mL yeast spread on NA and SDA, respectively. After the media cooled and solidified, wells (10 mm in diameter) were made in the solidified agar and loaded with 100 μL of the tested compound solution prepared by dissolving 10 mg of the chemical compound in 1 mL dimethyl sulfoxide (DMSO). The inoculated plates were then incubated for 24 h at 37 °C for bacteria and yeast growth. DMSO served as negative control. Ciprofloxacin (10 mg/mL) and ketoconazole (10 mg/mL) were used as standards for antibacterial and antifungal activity, respectively. After incubation, antimicrobial activity was evaluated by measuring the zone of inhibition against the test organisms and compared with that of the standard. Antimicrobial activities were expressed as the diameter of the inhibition zone (IZ) in mm. The experiment was carried out in triplicate and the average zone of inhibition was calculated.

[3] = system: Bacillus subtilis ATCC 6633; assay: Agar well diffusion, B. subtilis; format: cell-based; details: ATCC6633, 100 μL of 10 mg/mL in DMSO, read-out: diameter of inhibition zone, BS
Text: as §1, §2

[4] = system: Bacillus megaterium ATCC 9885; assay: Agar well diffusion, B. megaterium; format: cell-based; details: Priestia megaterium, ATCC9885, 100 μL of 10 mg/mL in DMSO, read-out: diameter of inhibition zone, BM
Text: as §1, §2

[5] = system: Escherichia coli ATCC 2592; assay: Agar well diffusion, E. coli; format: cell-based; details: ATCC2592, 100 μL of 10 mg/mL in DMSO, read-out: diameter of inhibition zone, EC
Text: as §1, §2

[6] = system: Pseudomonas aeruginosa ATCC 27,953; assay: Agar well diffusion, P. aeruginosa; format: cell-based; details: ATCC27, 100 μL of 10 mg/mL in DMSO, read-out: diameter of inhibition zone, PA
Text: as §1, §2

[7] = system: Saccharomyces cerevisiae local isolate; assay: Agar well diffusion, S. cerevisiae; format: cell-based; details: well diffusion, 100 μL of 10 mg/mL in DMSO, S. cerevisiae, read-out: diameter of inhibition zone, SC
Text: as §1, §2

[8] = system: Candida albicans NRRL Y-477; assay: Agar well diffusion, C. albicans; format: cell-based; details: NRRLY477, 100 μL of 10 mg/mL in DMSO, read-out: diameter of inhibition zone, CA
Text: as §1, §2

[9] = system: Staphylococcus aureus ATCC 29213; assay: MIC, two-fold serial dilution, S. aureus; format: cell-based; details: ATCC29213, read-out: Minimum inhibitory concentration, SA
Text: as §1
(§3) The bacteriostatic activity of the active compounds (having IZ > 16 mm) was then evaluated using the two-fold serial dilution technique. Two-fold serial dilutions of the tested compounds solutions were prepared using the proper nutrient broth to reach final concentrations of 1000, 500, 250, and 125 μg/mL. The tubes were then inoculated with the test microorganisms grown in their suitable broth at 37 °C for 24 h (1 × 10^8 CFU/mL for bacteria and 1 × 10^6 CFU/mL of yeast), 0.1 mL of the above inoculum was administered per 5 mL, and the tubes were incubated at 37 °C for 24 h. The lowest concentration showing no growth was taken as the MIC.

[10] = system: Bacillus subtilis ATCC 6633; assay: MIC, two-fold serial dilution, B. subtilis; format: cell-based; details: ATCC6633, read-out: Minimum inhibitory concentration, BS
Text: as §1, §3

[11] = system: Bacillus megaterium ATCC 9885; assay: MIC, two-fold serial dilution, B. megaterium; format: cell-based; details: Priestia megaterium, ATCC9885, read-out: Minimum inhibitory concentration, BM
Text: as §1, §3

[12] = system: Escherichia coli ATCC 2592; assay: MIC, two-fold serial dilution, E. coli; format: cell-based; details: ATCC2592, read-out: Minimum inhibitory concentration, EC
Text: as §1, §3

[13] = system: Pseudomonas aeruginosa ATCC 27,953; assay: MIC, two-fold serial dilution, P. aeruginosa; format: cell-based; details: ATCC27, read-out: Minimum inhibitory concentration, PA
Text: as §1, §3

[14] = system: Saccharomyces cerevisiae local isolate; assay: MIC, two-fold serial dilution, S. cerevisiae; format: cell-based; details: two-fold serial dilution, S. cerevisiae, read-out: Minimum inhibitory concentration, SC
Text: as §1, §3

[15] = system: Candida albicans NRRL Y-477; assay: MIC, two-fold serial dilution, C. albicans; format: cell-based; details: NRRLY477, read-out: Minimum inhibitory concentration, CA
Text: as §1, §3

[16] = system: trypsin; assay: Proteinase-inhibitory activity; format: biochemical; details: 250 µg/mL; mean ± SD (n = 3)
Protocol: The newly synthesised compounds were individually tested for their in vitro anti-inflammatory activity against proteinase enzyme. […] This test was performed at the Pharmacology Department, Medical Research Division, National Research Centre, Cairo, Egypt. Furthermore, compounds 2–8 were evaluated for their COX1/COX2 inhibitory activities.
The test was performed according to El-Serwy et al. with minor modifications. The reaction mixture (2 mL) contained 0.06 mg trypsin, 20 mM Tris HCl buffer (pH 7.4), and 1 mL test sample (250 µg/mL for each compound). After incubating for 5 min, 1 mL of 0.8% (w/v) casein was added. The mixture was incubated for an additional 20 min. The reaction was arrested by adding 1 mL of 10% perchloric acid. The cloudy suspension was centrifuged, and the absorbance of the supernatant was read at 280 nm. Reference standard aspirin was used as the positive control. The experiment was performed in triplicate. The percent inhibition of protein denaturation was calculated using the following Equation (2):(2) % Inhibition=100−A control −A test/A control×100 where Acontrol and Atest represent the absorbance of the control reaction without and with the sample, respectively.

[17] = system: tested microorganisms; assay: MIC, summary over the tested microorganisms; format: cell-based; details: two-fold serial dilution; read-out: MIC against one or more tested microorganisms
Text: as §1, §3

| Structure (SMILES) | IC50 [1] | zone of inhibition at 10000 µg/mL [2] [mm] | zone of inhibition at 10000 µg/mL [3] [mm] | zone of inhibition at 10000 µg/mL [4] [mm] | zone of inhibition at 10000 µg/mL [5] [mm] | zone of inhibition at 10000 µg/mL [6] [mm] | zone of inhibition at 10000 µg/mL [7] [mm] | zone of inhibition at 10000 µg/mL [8] [mm] | MIC [9] [µg/mL] | MIC [10] [µg/mL] | MIC [11] [µg/mL] | MIC [12] [µg/mL] | MIC [13] [µg/mL] | MIC [14] [µg/mL] | MIC [15] [µg/mL] | melting point [°C] | % Inhibition (proteinase) [16] [%] | MIC [17] [µg/mL] |
| --- | --- | --- | --- | --- | --- | --- | --- | --- | --- | --- | --- | --- | --- | --- | --- | --- | --- | --- |
| Cc1ccc2oc(=O)c(S(=O)(=O)Nc3ccc(C(=O)/C=C/c4ccc([N+](=O)[O-])cc4)cc3)c(O)c2c1 [9b, (E)-4-Hydroxy-6-methyl-N-(4-(3-(4-nitrophenyl)acryloyl)phenyl)-2-oxo-2H-chromene-3-sulfonamide] | — ((—): inactive (IC50 > 200 μg/mL)) | 22 | 24 | 25 | 26 | 26 | 25 | 23 | 500 (≈ 987 µM) | 500 (≈ 987 µM) | 500 (≈ 987 µM) | 250 (≈ 494 µM) | 250 (≈ 494 µM) | 500 (≈ 987 µM) | 500 (≈ 987 µM) | 220 |  |  |
| O=C(/C=C/c1ccc(Cl)cc1)c1ccc(NS(=O)(=O)c2c(O)c3cc(Cl)ccc3oc2=O)cc1 [9c, (E)-6-Chloro-N-(4-(3-(4-chlorophenyl)acryloyl)phenyl)-4-hydroxy-2-oxo-2H-chromene-3-sulfonamide] | — ((—): inactive (IC50 > 200 μg/mL)) | 28 | 29 | 30 | 30 | 30 | 31 to 32 | 30 | 250 (≈ 484 µM) | 250 (≈ 484 µM) | 250 (≈ 484 µM) | 250 (≈ 484 µM) | 250 (≈ 484 µM) | 125 (≈ 242 µM) | 125 (≈ 242 µM) | 157 to 159 | 17.6 ± 6.86 | 125 (≈ 242 µM) |
